Measured values from PMC12592420, “A mismatch in enzyme-redox partnerships underlies divergent cytochrome P450 activities between human hepatocytes and microsomes” (Communications Biology, 2025).
Several values for one entry are separate records, joined by “and”; a condition that tells them apart may be missing. Equal values may be shown once.

Key:
[1] = Incubations in HLM + NADPH from the same donor pool as S9; type: in vitro ADME, human; conditions: for microsomal CLint at 1 µM: human, human liver microsomes, pH 7.4, Midazolam CLint
Description: Liver S9 (lot 1810001, pool of 50, Xenotech) and HLM (pool of 50, lot 1810003, Xenotech) from the same pool of donors were purchased from Xenotech.

[2] = Metabolism of savolitinib in lysed hepatocytes + NADPH; type: in vitro ADME, human; conditions: savolitinib 1 µM, HH lysate + NADPH
Description: HH in Leibovitz buffer were centrifuged at 11,250 × g for 5 min to pellet the cells. Taking care not to disturb the pellet, all the media was removed using a pipette. Ice-cold water was added and the mixture vortex-mixed to resuspend the cells and stored at −80 °C for 5 min followed by sonication for 10 min to lyse the cells. The resuspended lysate final volume was equivalent to a final cell concentration of 1 million cells/mL (the same concentration used for intact cells experiments) in […] phosphate buffer pH 7.4 and NADPH (final 1 mM). After pre-incubating for 5 min at 37 °C, the reaction (metabolism of savolitinib) in the lysate was initiated by adding savolitinib (final 1 µM). […] Authentic standards (M2 and M4) were spiked into hepatocyte lysate and used to construct standard curves. The acetonitrile/hepatocyte lysate mixtures were centrifuged at 3000 × g for 10 min and 50 µl of the supernatant was mixed with 300 µl of water and 3 µL was injected into the mass spectrometer for analysis by multiple reaction monitoring.

[3] = target: T1, recombinant CYP3A4-POR (Homo sapiens, UniProt P08684); experiment: Savolitinib incubation with recombinant CYP3A4-POR Supersomes; type: in vitro ADME; conditions: CYP3A4 (CYP13A4 [sic]), savolitinib 1 µM, 1 h (Fig. 2c)
T1 construct: purchased 456202
T1 sequence (P08684 whole entry): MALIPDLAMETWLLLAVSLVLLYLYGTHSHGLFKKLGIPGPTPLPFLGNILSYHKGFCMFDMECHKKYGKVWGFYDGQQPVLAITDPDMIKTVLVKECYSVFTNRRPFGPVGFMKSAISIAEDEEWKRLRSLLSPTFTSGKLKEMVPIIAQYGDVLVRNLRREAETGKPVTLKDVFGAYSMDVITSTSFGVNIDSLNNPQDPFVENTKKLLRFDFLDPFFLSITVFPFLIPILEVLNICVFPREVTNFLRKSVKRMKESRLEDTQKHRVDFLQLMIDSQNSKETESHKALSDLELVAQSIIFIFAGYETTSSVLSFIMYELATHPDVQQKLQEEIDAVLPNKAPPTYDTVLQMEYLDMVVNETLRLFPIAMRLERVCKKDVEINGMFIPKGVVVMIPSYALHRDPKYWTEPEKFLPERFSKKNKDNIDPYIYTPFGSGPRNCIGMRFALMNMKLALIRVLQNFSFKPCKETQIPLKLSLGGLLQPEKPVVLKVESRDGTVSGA
Description: For detailed comparisons between recombinant CYP1A2 and CYP3A4 (Fig. 2B, C), Supersomes were used (CYP1A2, catalogue number 456203, CYP3A4, catalogue number 456202). […] The concentration of savolitinib metabolites M2 and M4 formed were determined from standard curves obtained by spiking the appropriate concentrations of M2 and M4 into recombinant enzymes (in the absence of NADPH) and processing in the same way as the samples.

[4] = Savolitinib metabolite (M2, M4) formation in NADPH-HLM (with BSA or cytosol where stated); type: in vitro ADME, human; set-up: [M4] / M2 average / M4 average: unit not given here; conditions: 60min; for M4 average: average of duplicate (Suppl. Fig. 1); for [M4]: savolitinib 1 µM, single measurements (Suppl. Fig. 1)
[5] = in vitro; conditions: human, Caco-2
[6] = CLint in NADH-supplemented human liver microsomes; conditions: for microsomal CLint at 1 µM / CLint scaled at 1 µM: human, microsomes
Description: (§1) Calculation and scaling of CLint,u was done using the equation below and 45 mg of microsomal protein per gram of liver. HLMCLint,u=ln2/x1/t1/2(min)xmLincubation/mgmicrosomalproteinx45mgmicrosomalprotein/gliverx21gliver/kg/Fuinc

[7] = CLint in NADPH-supplemented human liver microsomes; conditions: for microsomal CLint at 1 µM / CLint scaled at 1 µM: human, microsomes
Description: as §1

[8] = Midazolam CLint in HLM with NADPH:NADH (1:1); type: in vitro ADME, human; conditions: cofactor NADH:NADPH (1:1) (Fig. 5b)
[9] = in vitro; conditions: human, hepatocytes
Description: Cryopreserved HH prepared from a mixed-gender pool of twenty donors (product X008000, lot EEO, BIOIVT), ten-donors (product S01205, lot MTJ, BIOIVT), ten donors (product S01205 lot LYB, BIOIVT) were utilised in the experiments. Cryopreserved HH were rapidly thawed in a water bath set at 37 °C and added to Leibovitz media that had been pre-warmed in the water bath. The suspension of cells was mixed gently and centrifuged at 40 × g for 4 min at room temperature. Excess media was removed, and the cells were re-suspended in 5 mL of fresh Leibovitz media. The cells were counted using an automated cell counter (Cellometer).

[10] = target: T2, recombinant human CYP3A4-POR containing cytochrome b5 (Homo sapiens, UniProt P08684); experiment: Midazolam CLint by canonical recombinant CYP3A4-POR with cytochrome b5, with and without gefitinib; type: in vitro ADME; conditions: CYP3A4_POR, NADPH, listed as Mid
T2 construct: purchased BioIVT (named in b64 for the custom bactosomes); host or cells: bactosomes (E. coli is stated for the panel, not for this product)
T2 sequence (P08684 whole entry): as above
Description: (§2) As the reaction-rate was much higher, aliquots were taken at 0, 1, 2, 3, 4 and 5 min.

[11] = Incubations in human liver S9 + NADPH (same donor pool as HLM); type: in vitro ADME; conditions: human, human liver S9, pH 7.4, Midazolam CLint
[12] = system: rat hepatocytes; experiment: Free fraction in rat hepatocytes as surrogate for HH, equilibrium dialysis; type: in vitro ADME; conditions: fraction unbound, measured or estimated by in silico models of Fuinc
[13] = target: T3, recombinant human CYP3A4-Cytb5R containing cytochrome b5 (Homo sapiens, UniProt P08684); experiment: Midazolam CLint by non-canonical recombinant CYP3A4-Cytb5R with cytochrome b5, with and without gefitinib; type: in vitro ADME; conditions: CYP3A4_Cytb5R, NADPH, listed as Mid
T3 construct: purchased BioIVT (custom synthesis) CE00001(CYP3A4), batch CPD034-3A4; host or cells: bactosomes
T3 sequence (P08684 whole entry): as above
Description: As commercial recombinant human CYPs co-express the individual CYP and reductase with an option to include cytochrome b5. A custom synthesis co-expressing CYP3A4 or CYP1A2 and Cytb5R plus cytochrome b5 was, therefore, ordered from BioIVT and the bactosomes were compared with canonical CYP-POR enzymes plus cytochrome b5.
as §2

[14] = Free fraction in HLM incubation, equilibrium dialysis; type: in vitro ADME, human; conditions: fraction unbound, measured or estimated by in silico models of Fuinc
[15] = HLM (same donors as S9) + NADPH + 5 uM GEF (Fig. 6b)
[16] = HLM (same donors as S9) + NADPH, midazolam 1 µM alone (Fig. 6b)

In the case of `C[C@@H](c1ccc(N)nc1)n1nnc2ncc(-c3cnn(C)c3)nc21` [Compound M4], the “[M4]” value ([1]; HLM (same donors as S9) + NADPH, savolitinib 1 µM, 1 h (Fig. 6aii)) is reported as 59.25 nM and 71.3 nM and 48.9 nM, the “[M4]” value ([2]; 0 min (Fig. 6cii)) is reported as 2.8 nM and 3 nM and 2.75 nM and the “[M4]” value ([2]; 5 min (Fig. 6cii)) is reported as 3.1 nM and 3.9 nM and 3.3 nM. For the same molecule, the “[M4]” value ([2]; 10 min (Fig. 6cii)) was 4.2 nM and 5.25 nM and 4 nM, the “[M4]” value ([2]; 20 min (Fig. 6cii)) was 4.6 nM and 6.95 nM and 4.95 nM and the “[M4]” value ([2]; 40 min (Fig. 6cii)) was 6.1 nM and 9.2 nM and 6.8 nM. For the same molecule, the “[M4]” value ([2]; 60 min (Fig. 6cii)) was 7.5 nM and 10.55 nM and 8.1 nM, the “[M4] nM formed by recombinant CYPs” value [3] was 208.8 nM and 197.55 nM and 216.7 nM and the M4 average ([4]; cytosol 0 mg/mL) was 45.7 and 50.45 and 48.25. For the same molecule, the M4 average ([4]; cytosol 4 mg/mL) was 17.35 and 19.85 and 21.35, the M4 average ([4]; cytosol 10 mg/mL) was 7.4 and 8.2 and 10.05 and the [M4] ([4]; cytosol 0 mg/mL) was 45.1 and 46.3 and 50.7 and 50.2 and 47.8 and 48.7. For the same molecule, the [M4] ([4]; cytosol 4 mg/mL) was 17.9 and 16.8 and 19.5 and 20.2 and 21.9 and 20.8 and the [M4] ([4]; cytosol 10 mg/mL) was 7.5 and 7.3 and 8.2 and 10.2 and 9.9.

With `Cc1ncc2n1-c1ccc(Cl)cc1C(c1ccccc1F)=NC2` [Midazolam] the Papp [5] was 47.5 ×10⁻⁶ cm/s, the “Midazolam CLint” value ([6]; HLM + NADH, control without gefitinib (Fig. 3d)) was 23.9 µL/min/mg and 21.4 µL/min/mg and the “Scaled midazolam CLint,u” value ([6]; HLM, cofactor NADH (Fig. 5b)) was 248.867 mL/min/kg and 261.398 mL/min/kg. For the same molecule, the microsomal CLint at 1 µM ([6]; pH 7.4, HLM_NADH CLint, 1 µM, single determination, Fig. 4a,d) was 103 µL/min/mg, the microsomal CLint at 1 µM ([6]; pH 7.4, Midazolam CLint, HLM + NADH, control without gefitinib (Fig. 3d)) was 14.7 µL/min/mg and the CLint scaled at 1 µM ([6]; pH 7.4, NADH_HLM_scaled_CLint,u, Fig. 4a,d) was 213 mL/min/kg. The CLint scaled at 1 µM ([6]; pH 7.4, Scaled midazolam CLint,u, HLM, cofactor NADH (Fig. 5b)) was 247 mL/min/kg, the “NADPH_HLM_scaled_CLint,u” value ([7]; Fig. 4a,d) was 614.71 mL/min/kg and the “Midazolam CLint” value ([7]; HLM + NADPH, control without gefitinib (Fig. 3d)) was 265.8 µL/min/mg and 269.7 µL/min/mg. For the same molecule, the “Midazolam scaled CLint,u” value ([7]; HLM + NADPH, no gefitinib (Fig. 3a)) was 531.926 mL/min/kg and 593.803 mL/min/kg, the “Scaled midazolam CLint,u” value ([7]; HLM, cofactor NADPH (Fig. 5b)) was 703.964 mL/min/kg and 722.238 mL/min/kg and the “Scaled HLM CLint,u” value ([7]; NADPH-HLM, individual determinations 1-3, Fig. 1) was 632.553 mL/min/kg and 670.23 mL/min/kg. It also gave a microsomal CLint at 1 µM ([7]; pH 7.4, HLM_NADPH CLint, 1 µM, single determination, Fig. 4a,d) of 295 µL/min/mg, a microsomal CLint at 1 µM ([7]; pH 7.4, Midazolam CLint, HLM + NADPH, control without gefitinib (Fig. 3d)) of 288 µL/min/mg and a CLint scaled at 1 µM ([7]; pH 7.4, Midazolam scaled CLint,u, HLM + NADPH, no gefitinib (Fig. 3a)) of 619 mL/min/kg. The CLint scaled at 1 µM ([7]; pH 7.4, Scaled HLM CLint,u average, NADPH-HLM, average, Fig. 1) was 649 mL/min/kg, the CLint scaled at 1 µM ([7]; pH 7.4, Scaled HLM CLint,u, NADPH-HLM, individual determinations 1-3, Fig. 1) was 643 mL/min/kg and the CLint scaled at 1 µM ([7]; pH 7.4, Scaled midazolam CLint,u, HLM, cofactor NADPH (Fig. 5b)) was 693 mL/min/kg. The “Scaled midazolam CLint,u” value [8] was 761.569 mL/min/kg and 740.511 mL/min/kg, the CLint scaled at 1 µM ([8]; human, human liver microsomes, pH 7.4, Scaled midazolam CLint,u) was 762 mL/min/kg and the CLint scaled ([9]; HH_scaled_CLint,u) was 90.5 mL/min/kg. The CLint scaled ([9]; Midazolam scaled CLint,u) was 104 mL/min/kg, the CLint scaled ([9]; Scaled HH CLint,u) was 62.8 mL/min/kg and the CLint scaled ([9]; Scaled HH CLint,u average) was 51.2 mL/min/kg. The “Midazolam CLint” value [1, 15] was 392.5 µL/min/mg and 377.3 µL/min/mg, the “Percentage of midazolam alone” value [1, 15] was 121.498% and 119.228% and 122.262% and the “Midazolam CLint” value [1, 16] was 329.2 µL/min/mg. For the same molecule, the microsomal CLint at 1 µM [1, 15] was 336 µL/min/mg, the microsomal CLint at 1 µM [1, 16] was 276 µL/min/mg and the “Midazolam CLint” value ([10]; Mid + GEF 5 µM (Fig. 5e)) was 3292.07 µL/min/nmol and 3281.83 µL/min/nmol and 2734.43 µL/min/nmol. For the same molecule, the “Midazolam CLint” value ([10]; Mid alone (Fig. 5e)) was 4061.76 µL/min/nmol and 4262.77 µL/min/nmol and 3511.63 µL/min/nmol, the microsomal CLint at 1 µM ([11]; S9 + NADPH + 5 uM GEF (Fig. 6b)) was 150 µL/min/mg and the microsomal CLint at 1 µM ([11]; S9 + NADPH, midazolam 1 µM alone (Fig. 6b)) was 77.2 µL/min/mg. For the same molecule, the fu_ratHH [12] was 0.543, the “Midazolam CLint” value ([13]; Mid + GEF 5 µM (Fig. 5f)) was 19.6 µL/min/nmol and 13.9 µL/min/nmol and 18.8 µL/min/nmol and the “Midazolam CLint” value ([13]; Mid alone (Fig. 5f)) was 6.9 µL/min/nmol and 5.5 µL/min/nmol and 5.1 µL/min/nmol. For the same molecule, the fu_HLM [14] was 0.454.
